Results as given in patent publication US10875875B2, “Propionic acid derivatives and methods of use thereof” (Aviara Pharmaceuticals, Inc., priority 2017, dated 2020).

These compounds were tested against α4β1 (Homo sapiens, UniProt P05556+P13612) (assay: α4β1 integrin inhibition, IC50). Conditions: read-out: α4β1 IC50.
Type: binding

Sequence of α4β1 (P13612 34-1032): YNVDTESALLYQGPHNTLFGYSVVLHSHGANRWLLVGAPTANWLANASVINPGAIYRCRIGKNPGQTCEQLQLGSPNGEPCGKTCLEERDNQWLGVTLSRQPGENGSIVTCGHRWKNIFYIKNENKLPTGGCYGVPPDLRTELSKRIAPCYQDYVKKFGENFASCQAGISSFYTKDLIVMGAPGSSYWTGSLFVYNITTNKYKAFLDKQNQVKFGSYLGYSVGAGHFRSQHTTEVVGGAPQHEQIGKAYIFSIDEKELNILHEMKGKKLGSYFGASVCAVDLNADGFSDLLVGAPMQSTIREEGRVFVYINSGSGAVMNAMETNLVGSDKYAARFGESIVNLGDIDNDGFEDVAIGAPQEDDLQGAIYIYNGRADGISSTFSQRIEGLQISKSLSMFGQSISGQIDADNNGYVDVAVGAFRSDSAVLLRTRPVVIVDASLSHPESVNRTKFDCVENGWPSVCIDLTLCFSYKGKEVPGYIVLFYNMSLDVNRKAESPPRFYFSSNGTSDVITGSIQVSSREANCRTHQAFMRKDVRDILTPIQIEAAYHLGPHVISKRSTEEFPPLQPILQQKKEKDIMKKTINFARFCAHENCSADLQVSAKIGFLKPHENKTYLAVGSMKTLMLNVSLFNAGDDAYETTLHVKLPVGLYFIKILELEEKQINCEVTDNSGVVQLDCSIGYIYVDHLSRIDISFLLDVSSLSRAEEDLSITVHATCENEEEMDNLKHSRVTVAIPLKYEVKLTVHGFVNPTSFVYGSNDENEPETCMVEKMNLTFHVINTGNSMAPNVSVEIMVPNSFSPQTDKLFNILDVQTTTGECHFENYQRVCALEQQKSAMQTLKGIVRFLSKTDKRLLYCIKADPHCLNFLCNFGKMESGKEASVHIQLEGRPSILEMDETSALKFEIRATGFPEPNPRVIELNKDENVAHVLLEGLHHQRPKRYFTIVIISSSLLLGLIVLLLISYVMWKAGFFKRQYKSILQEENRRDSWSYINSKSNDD
Sequence of α4β1 (P05556 21-798): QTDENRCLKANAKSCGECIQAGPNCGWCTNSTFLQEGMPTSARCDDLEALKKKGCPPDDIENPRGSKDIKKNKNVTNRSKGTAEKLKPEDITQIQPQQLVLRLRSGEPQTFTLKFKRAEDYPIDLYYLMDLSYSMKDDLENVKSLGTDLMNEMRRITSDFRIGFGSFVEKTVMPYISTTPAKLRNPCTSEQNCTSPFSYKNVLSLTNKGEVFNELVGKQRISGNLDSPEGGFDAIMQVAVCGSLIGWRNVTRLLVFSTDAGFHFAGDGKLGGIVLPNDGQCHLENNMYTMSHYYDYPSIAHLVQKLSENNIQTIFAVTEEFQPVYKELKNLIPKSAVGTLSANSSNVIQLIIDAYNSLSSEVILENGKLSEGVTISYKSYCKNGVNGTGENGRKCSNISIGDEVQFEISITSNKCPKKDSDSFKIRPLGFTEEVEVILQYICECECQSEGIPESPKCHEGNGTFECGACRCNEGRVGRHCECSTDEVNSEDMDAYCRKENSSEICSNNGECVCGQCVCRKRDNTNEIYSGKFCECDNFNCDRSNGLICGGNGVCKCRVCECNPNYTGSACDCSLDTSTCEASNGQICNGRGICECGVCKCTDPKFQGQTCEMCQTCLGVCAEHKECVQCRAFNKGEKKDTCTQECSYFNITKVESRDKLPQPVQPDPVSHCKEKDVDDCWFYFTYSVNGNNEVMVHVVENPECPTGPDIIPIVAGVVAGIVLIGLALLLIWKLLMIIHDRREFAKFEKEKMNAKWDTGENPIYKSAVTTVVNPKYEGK

IC50, < 0.02 µM:
Cc1noc(C)c1-c1ccc([C@H](CC(=O)O)NC(=O)Nc2c(O)ccn(C)c2=O)s1 [1-608, sodium (S)-3-(5-(3,5-dimethylisoxazol-4-yl)thiophen-2-yl)-3-(3-(1-methyl-4-oxido-2-oxo-1,2-dihydropyridin-3-yl)ureido)propanoate]
Cc1noc(C)c1-c1cccc([C@H](CC(=O)O)NC(=O)Nc2c(O)cc(C)n(C)c2=O)c1 [1-609, sodium (S)-3-(3-(1,6-dimethyl-4-oxido-2-oxo-1,2-dihydropyridin-3-yl)ureido)-3-(3-(3,5-dimethylisoxazol-4-yl)phenyl)propanoate]
Cc1cc(O)c(NC(=O)N[C@@H](CC(=O)O)c2cccc(-c3ccccc3)c2F)c(=O)n1C [1-610, sodium (S)-3-(3-(1,6-dimethyl-4-oxido-2-oxo-1,2-dihydropyridin-3-yl)ureido)-3-(2-fluorobiphenyl-3-yl)propanoate]
Cc1ccccc1-c1cc([C@H](CC(=O)O)NC(=O)Nc2c(O)cc(C)n(C)c2=O)ccc1F [1-611, sodium (S)-3-(3-(1,6-dimethyl-4-oxido-2-oxo-1,2-dihydropyridin-3-yl)ureido)-3-(6-fluoro-2′-methylbiphenyl-3-yl)propanoate]
Cc1ccccc1-c1cc([C@H](CC(=O)O)NC(=O)Nc2c(O)ccn(C)c2=O)ccc1F [1-612, sodium (S)-3-(6-fluoro-2′-methylbiphenyl-3-yl)-3-(3-(1-methyl-4-oxido-2-oxo-1,2-dihydropyridin-3-yl)ureido)propanoate]
Cn1ccc(O)c(NC(=O)N[C@@H](CC(=O)O)c2ccc(-c3ccccc3)s2)c1=O [1-613, sodium (S)-3-(3-(1-methyl-4-oxido-2-oxo-1,2-dihydropyridin-3-yl)ureido)-3-(5-phenylthiophen-2-yl)propanoate]
Cn1ccc(O)c(NC(=O)N[C@@H](CC(=O)O)c2ccc(-c3cc(F)ccc3F)s2)c1=O [1-614, sodium (S)-3-(5-(2,5-difluorophenyl)thiophen-2-yl)-3-(3-(1-methyl-4-oxido-2-oxo-1,2-dihydropyridin-3-yl)ureido)propanoate]
Cn1ccc(O)c(NC(=O)N[C@@H](CC(=O)O)c2cc(OC(F)(F)F)cc(-c3ccccc3)c2)c1=O [1-615, sodium (S)-3-(3-(1-methyl-4-oxido-2-oxo-1,2-dihydropyridin-3-yl)ureido)-3-(5-(trifluoromethoxy)biphenyl-3-yl)propanoate]
Cc1ccccc1-c1ccc([C@H](CC(=O)O)NC(=O)Nc2c(O)ccn(C)c2=O)cc1 [1-616, sodium (S)-3-(3-(1-methyl-4-oxido-2-oxo-1,2-dihydropyridin-3-yl)ureido)-3-(2′-methylbiphenyl-4-yl)propanoate]
Cn1ccc(O)c(NC(=O)N[C@@H](CC(=O)O)c2ccc(-c3ccc(F)cc3F)cc2)c1=O [1-621, sodium (S)-3-(2′,4′-difluorobiphenyl-4-yl)-3-(3-(1-methyl-4-oxido-2-oxo-1,2-dihydropyridin-3-yl)ureido)propanoate]
Cc1cc(O)c(NC(=O)N[C@@H](CC(=O)O)c2ccc(-c3ccc(F)cc3F)cc2)c(=O)n1C [1-622, sodium (S)-3-(2′,4′-difluorobiphenyl-4-yl)-3-(3-(1,6-dimethyl-4-oxido-2-oxo-1,2-dihydropyridin-3-yl)ureido)propanoate]
Cc1cn(C)c(=O)c(NC(=O)N[C@@H](CC(=O)O)c2ccc(-c3ccc(F)cc3F)cc2)c1O [1-623, sodium (S)-3-(2′,4′-difluorobiphenyl-4-yl)-3-(3-(1,5-dimethyl-4-oxido-2-oxo-1,2-di hydropyridin-3-yl)ureido)propanoate]
Cc1ccccc1-c1cc([C@H](CC(=O)O)NC(=O)Nc2c(O)ccn(C)c2=O)ccc1OC(F)(F)F [1-624, sodium (S)-3-(3-(1-methyl-4-oxido-2-oxo-1,2-dihydropyridin-3-yl)ureido)-3-(2′-methyl-6-(trifluoromethoxy)biphenyl-3-yl)propanoate]
CC(=O)c1cccc(-c2cccc(C(CC(=O)O)NC(=O)Nc3c(O)c(C)cn(C)c3=O)c2)c1 (centres unmarked) [1-626, sodium 3-(3′-acetylbiphenyl-3-yl)-3-(3-(1,5-dimethyl-4-oxido-2-oxo-1,2-dihydropyridin-3-yl)ureido)propanoate]
Cn1ccc(O)c(NC(=O)N[C@@H](CC(=O)O)c2cccc(-c3nccs3)c2)c1=O [1-630, sodium (S)-3-(3-(1-methyl-4-oxido-2-oxo-1,2-dihydropyridin-3-yl)ureido)-3-(3-(thiazol-2-yl)phenyl)propanoate]
Cc1cc(-c2cccc(OC(F)(F)F)c2)cc([C@H](CC(=O)O)NC(=O)Nc2c(O)cc(C)n(C)c2=O)c1 [1-631, sodium (S)-3-(3-(1,6-dimethyl-4-oxido-2-oxo-1,2-dihydropyridin-3-yl)ureido)-3-(5-methyl-3′-(trifluoromethoxy)biphenyl-3-yl)propanoate]
Cc1cc(O)c(NC(=O)N[C@@H](CC(=O)O)c2cc(F)cc(-c3ccc(F)cc3F)c2)c(=O)n1C [1-632, sodium (S)-3-(3-(1,6-dimethyl-4-oxido-2-oxo-1,2-dihydropyridin-3-yl)ureido)-3-(2′,4′,5-trifluorobiphenyl-3-yl)propanoate]
Cn1ccc(O)c(NC(=O)N[C@@H](CC(=O)O)c2cc(F)cc(-c3ccc(F)cc3F)c2)c1=O [1-633, sodium (S)-3-(3-(1-methyl-4-oxido-2-oxo-1,2-dihydropyridin-3-yl)ureido)-3-(2′,4′,5-trifluorobiphenyl-3-yl)propanoate]

IC50, > 0.2 µM:
Cn1ccc(O)c(NC(=O)N[C@@H](CC(=O)O)c2cc(-c3ccccc3)cc(C(F)(F)F)c2)c1=O [1-618, sodium (S)-3-(3-(1-methyl-4-oxido-2-oxo-1,2-dihydropyridin-3-yl)ureido)-3-(5-(trifluoromethyl)biphenyl-3-yl)propanoate]

IC50, < 0.2 µM:
Cn1ccc(O)c(NC(=O)N[C@@H](CC(=O)O)c2ccc(-c3cccc(Cl)c3)s2)c1=O [1-619, sodium (S)-3-(5-(3-chlorophenyl)thiophen-2-yl)-3-(3-(1-methyl-4-oxido-2-oxo-1,2-dihydropyridin-3-yl)ureido)propanoate]
Cn1ccc(O)c(NC(=O)N[C@@H](CC(=O)O)c2ccc(-c3cccc(F)c3)s2)c1=O [1-620, sodium (S)-3-(5-(3-fluorophenyl)thiophen-2-yl)-3-(3-(1-methyl-4-oxido-2-oxo-1,2-dihydropyridin-3-yl)ureido)propanoate]
Cn1ccc(O)c(NC(=O)N[C@@H](CC(=O)O)c2ccc(OC(F)(F)F)c(-c3ccccc3)c2)c1=O [1-625, sodium (S)-3-(3-(1-methyl-4-oxido-2-oxo-1,2-dihydropyridin-3-yl)ureido)-3-(6-(trifluoromethoxy)biphenyl-3-yl)propanoate]
Cc1cn(C)c(=O)c(NC(=O)N[C@@H](CC(=O)O)c2ccc(-c3ccccc3)s2)c1O [1-628, sodium (S)-3-(3-(1,5-dimethyl-4-oxido-2-oxo-1,2-dihydropyridin-3-yl)ureido)-3-(5-phenylthiophen-2-yl)propanoate]
